Laboratory results from PMC3894558, “Chemical signatures and new drug targets for gametocytocidal drug development” (Scientific Reports, 2014).
Where two headings read alike, the source gives them in different places.

Test system: P. falciparum 3D7 gametocytes
Assay: alamarBlue gametocyte viability assay, strain 3D7
Type: cell-based, Plasmodium falciparum
Settings: for Max Resp: DMSO set at 0%, 100 nM epoxomicin set at -100%; call rule not given here
[1] = Malaria Box, stages III-V 3D7 gametocytes
[2] = Malaria Box, stages III-V 3D7 gametocytes, 11 concentrations, 1:3 dilution, read-out: IC50
[3] = Malaria Box, stages III-V 3D7 gametocytes, 11 concentrations, 1:3 dilution

Compound | Max Resp (Malaria Box) | Curve Class [1] | IC50 [2] | reduction of gametocyte viability (Malaria Box screen) | IC50 (P. falciparum 3D7 gametocytes, mean of at least 3 independent experiments, read-out: Gametocyte IC50) | IC50 [3]
COc1ccc2c(=O)cc(C(Cl)(Cl)Cl)oc2c1 [MMV665820] | -101% | -1.1 | 3.72 µM |  |  | 
COc1ccc(CNC2CCN(c3ccc(NC(=O)c4cccc(Cl)c4)cc3)CC2)cc1OC [MMV666067] | -95% | -2.1 | 14.8 µM |  |  | 
CC1=C(CC(=O)c2cccc([N+](=O)[O-])c2)C(=O)c2ccccc2C1=O [MMV666125] | -116% | -1.1 | 0.833 µM | > 75% | < 1 µM | 
COc1cccc(C(=O)Nc2ccc(-c3nc4ccccc4[nH]3)cc2)c1 [MMV019762] | -1% | 4 |  |  |  | Inactive
N=c1n(CCN2CCCCC2)c2ccccc2n1CC(=O)c1ccc(Cl)c(Cl)c1 [MMV396723] | -92% | -2.1 | 14.8 µM |  |  | 
COc1cccc(O)c1CN1CCC2(CCCN(Cc3ccc(F)cc3)C2)C1 (centres unmarked) [MMV666061] | -57% | -1.2 | 1.66 µM |  |  | 
COc1ccccc1CNC(=O)C1c2ccccc2C(=O)N(CC(C)C)C1c1cccs1 (centres unmarked) [MMV000648] | -46% | -2.2 |  |  |  | Inactive
COc1cccc(Nc2nc(N)c3ccccc3n2)c1.Cl [MMV019199] | -66% | -2.2 | 23.5 µM |  |  | 
COCCn1c(C)nc2ccccc2c1=O [MMV665904] | -7% | 4 |  |  |  | Inactive
CC(C)(C)c1ccc(C(=O)Nc2c3c(nn2-c2cccc(Cl)c2)CSC3)cc1 [MMV666123] | -6% | 4 |  |  |  | Inactive
OCCNc1nc(Nc2ccc(Cl)c(Cl)c2)nc2ccccc12 [MMV001041] | -63% | -2.2 | 14.8 µM |  |  | 
Cc1ccc(CSCc2ccc(C(=O)NC3CC3)o2)cc1 [MMV007571] | 6% | 4 |  |  |  | Inactive
O=C(CCc1ccccc1)c1ccccc1OCC(O)CN1CCCCC1 (centres unmarked) [MMV009015] | -74% | -2.2 | 7.43 µM |  |  | 
CCOc1ccc2nc(C)cc(Nc3ccc(Br)cc3)c2c1 [MMV006522] | -59% | -2.2 | 29.6 µM |  |  | 
Br.CCN(CC)S(=O)(=O)c1ccc(-c2csc(Nc3ccc(C)c(C)c3)n2)cc1 [MMV009108] | -14% | 4 |  |  |  | Inactive
CNCCCNc1ccnc2cc(Cl)ccc12 [MMV020500] | -63% | -1.2 | 0.235 µM |  |  | 
CC(C)CNC(=O)c1c(N)n(CCc2ccccc2F)c2nc3ccccc3nc12 [MMV396744] | -70% | -1.2 | 3.32 µM |  |  | 
CN(C)c1ccc(-c2nc3ccc(N)cc3[nH]2)cc1 [MMV666102] | -75% | -2.2 | 29.6 µM |  |  | 
Cc1ccc(-c2nc3ccccc3o2)cc1NCc1cc(Cc2ccccc2)ccc1O [MMV020912] | -63% | -2.2 | 23.5 µM |  |  | 
COc1cc(-c2nc(-c3ccccc3)c(-c3ccccc3)[nH]2)cc(OC)c1O [MMV020750] | -55% | -2.2 | 37.2 µM |  |  | 
CCN(Cc1ccccc1)C1CCN(Cc2cc(Br)ccc2O)CC1.O=C(O)C(=O)O [MMV019127] | -56% | -1.2 | 0.935 µM |  |  | 
CCCCOC(=O)c1ccc(Nc2cc(C)nc3ccc(OC)cc23)cc1 [MMV665797] | -47% | -2.2 |  |  |  | Inactive
CC(=O)c1sc(NC(=O)Nc2ccc(C)cc2C)nc1C [MMV665894] | -23% | 4 |  |  |  | Inactive
O=C(Nc1ccc(CN2CCOCC2)cc1)c1ccc(-c2ccc(Br)cc2)o1 [MMV665901] | -41% | -2.4 |  |  |  | Inactive
